PubChem BioAssay AID248 (DTP/NCI, 2004)
Values joined by “and” are separate entries in the source; they are usually repeats but may differ in a detail not shown here. Identical values can stand only once. Toxic doses and inconclusive results are not listed. Rule as the data show it: active = T/C of 150% or more; inactive = T/C below 125%.

Test system: L1210 leukemia ip in BDF1 mice, survival T/C
Assay: NCI In Vivo Anticancer Drug Screen. Data for tumor model L1210 Leukemia (intraperitoneal) in B6D2F1 (BDF1) mice
Details: endpoint: mean survival time, higher = longer survival
Outline: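 Survival endpoint. Drug-treated group vs vehicle group, expressed as T divided by C. Tumor passaged by transplantation.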

[1] = dose: 100.0 mg/kg/injection, schedule: Q01DX001 (ip), vehicle: carboxymethylcellulose (CMC)
[2] = dose: 200.0 mg/kg/injection, schedule: Q01DX001 (ip), vehicle: carboxymethylcellulose (CMC)
[3] = dose: 400.0 mg/kg/injection, schedule: Q01DX001 (ip), vehicle: carboxymethylcellulose (CMC)
[4] = dose: 100.0 mg/kg/injection, schedule: Q04DX003 (ip), vehicle: gum acacia
[5] = dose: 200.0 mg/kg/injection, schedule: Q04DX003 (ip), vehicle: gum acacia
[6] = dose: 400.0 mg/kg/injection, schedule: Q04DX003 (ip), vehicle: gum acacia
[7] = dose: 100.0 mg/kg/injection, schedule: Q01DX009 (ip), vehicle: saline with Tween-80
[8] = dose: 100.0 mg/kg/injection, schedule: Q04DX003 (ip), vehicle: saline with Tween-80
[9] = dose: 200.0 mg/kg/injection, schedule: Q01DX009 (ip), vehicle: saline with Tween-80
[10] = dose: 200.0 mg/kg/injection, schedule: Q04DX003 (ip), vehicle: saline with Tween-80
[11] = dose: 400.0 mg/kg/injection, schedule: Q01DX009 (ip), vehicle: saline with Tween-80
[12] = dose: 400.0 mg/kg/injection, schedule: Q04DX003 (ip), vehicle: saline with Tween-80
[13] = dose: 100.0 mg/kg/injection, schedule: Q01DX001 (ip), vehicle: Klucel (hydroxypropylcellulose) (HPC)
[14] = dose: 200.0 mg/kg/injection, schedule: Q01DX001 (ip), vehicle: Klucel (hydroxypropylcellulose) (HPC)
[15] = dose: 100.0 mg/kg/injection, schedule: Q01DX009 (ip), vehicle: Klucel (hydroxypropylcellulose) (HPC)
[16] = dose: 200.0 mg/kg/injection, schedule: Q01DX009 (ip), vehicle: Klucel (hydroxypropylcellulose) (HPC)
[17] = dose: 400.0 mg/kg/injection, schedule: Q01DX009 (ip), vehicle: Klucel (hydroxypropylcellulose) (HPC)
[18] = dose: 100.0 mg/kg/injection, schedule: Q04DX003 (ip), vehicle: Klucel (hydroxypropylcellulose) (HPC)
[19] = dose: 200.0 mg/kg/injection, schedule: Q04DX003 (ip), vehicle: Klucel (hydroxypropylcellulose) (HPC)
[20] = dose: 400.0 mg/kg/injection, schedule: Q04DX003 (ip), vehicle: Klucel (hydroxypropylcellulose) (HPC)
[21] = dose: 100.0 mg/kg/injection, schedule: Q01DX001 (ip), vehicle: saline
[22] = dose: 200.0 mg/kg/injection, schedule: Q01DX001 (ip), vehicle: saline
[23] = dose: 400.0 mg/kg/injection, schedule: Q01DX001 (ip), vehicle: saline

Measured: T/C

O=C1NCC/C1=C\c1cc2c(cc1[N+](=O)[O-])OCO2
inactive: dose: 50.0 mg/kg/injection, schedule: Q01DX001 (ip), vehicle: carboxymethylcellulose (CMC) 88 % of control | [1] 90 % of control | [2] 100 % of control | [3] 90 % of control

CN(N=O)C(=O)NCC1OC(n2cnc3c(N)ncnc32)C(O)C1O (stereo not given)
inactive: dose: 9.0 mg/kg/injection, schedule: Q01DX001 (ip), vehicle: saline with Tween-80 95 % of control | dose: 13.0 mg/kg/injection, schedule: Q01DX001 (ip), vehicle: saline with Tween-80 98 % of control | dose: 26.0 mg/kg/injection, schedule: Q01DX001 (ip), vehicle: saline with Tween-80 96 % of control | dose: 40.0 mg/kg/injection, schedule: Q01DX001 (ip), vehicle: saline with Tween-80 96 % of control | dose: 60.0 mg/kg/injection, schedule: Q01DX001 (ip), vehicle: saline with Tween-80 98 % of control | dose: 90.0 mg/kg/injection, schedule: Q01DX001 (ip), vehicle: saline with Tween-80 103 % of control | dose: 133.0 mg/kg/injection, schedule: Q01DX001 (ip), vehicle: saline with Tween-80 101 % of control | dose: 200.0 mg/kg/injection, schedule: Q01DX001 (ip), vehicle: saline with Tween-80 106 % of control

S=C1NC(c2cccc(Cl)c2)N2C(=S)NC(c3cccc(Cl)c3)N12 (stereo not given)
inactive: dose: 25.0 mg/kg/injection, schedule: Q01DX009 (ip), vehicle: gum acacia 95 % of control | dose: 50.0 mg/kg/injection, schedule: Q01DX009 (ip), vehicle: gum acacia 95 % of control | dose: 100.0 mg/kg/injection, schedule: Q01DX009 (ip), vehicle: gum acacia 101 % of control | [4] 101 % of control | dose: 200.0 mg/kg/injection, schedule: Q01DX009 (ip), vehicle: gum acacia 88 % of control | [5] 93 % of control | dose: 400.0 mg/kg/injection, schedule: Q01DX009 (ip), vehicle: gum acacia 87 % of control | [6] 97 % of control

O=C(Oc1ccc([N+](=O)[O-])cc1)c1cccc(S(=O)(=O)F)c1
inactive: [1] 93 % of control and 102 % of control | dose: 100.0 mg/kg/injection, schedule: Q01DX009 (ip), vehicle: carboxymethylcellulose (CMC) 103 % of control and 110 % of control | dose: 100.0 mg/kg/injection, schedule: Q04DX003 (ip), vehicle: carboxymethylcellulose (CMC) 104 % of control | [2] 98 % of control and 101 % of control | dose: 200.0 mg/kg/injection, schedule: Q01DX009 (ip), vehicle: carboxymethylcellulose (CMC) 92 % of control and 94 % of control | dose: 200.0 mg/kg/injection, schedule: Q04DX003 (ip), vehicle: carboxymethylcellulose (CMC) 102 % of control and 90 % of control | [3] 98 % of control and 101 % of control | dose: 400.0 mg/kg/injection, schedule: Q01DX009 (ip), vehicle: carboxymethylcellulose (CMC) 92 % of control | dose: 400.0 mg/kg/injection, schedule: Q04DX003 (ip), vehicle: carboxymethylcellulose (CMC) 96 % of control and 90 % of control

O=[N+]([O-])c1ccc(-c2ccccc2Cl)c([N+](=O)[O-])c1
inactive: [1] 91 % of control | [2] 91 % of control | [3] 97 % of control

C=CC[Se]c1ncnc2c1ccn2C1OC(CO)C(O)C1O (stereo not given)
inactive: dose: 12.5 mg/kg/injection, schedule: Q01DX005 (ip), vehicle: saline 101 % of control | dose: 25.0 mg/kg/injection, schedule: Q01DX005 (ip), vehicle: saline 107 % of control | dose: 50.0 mg/kg/injection, schedule: Q01DX005 (ip), vehicle: saline 107 % of control | dose: 100.0 mg/kg/injection, schedule: Q01DX005 (ip), vehicle: saline 102 % of control

Nc1ccc(S(=O)(=O)Nc2ccc(N(CCCl)CCCl)cc2)cc1
inactive: [7] 108 % of control | [8] 105 % of control | [9] 113 % of control | [10] 103 % of control | [11] 111 % of control | [12] 102 % of control

CCCCCC(Oc1ccc(Cl)cc1C)C(=O)O (stereo not given)
inactive: dose: 100.0 mg/kg/injection, schedule: Q04DX002 (ip), vehicle: Klucel (hydroxypropylcellulose) (HPC) 107 % of control | dose: 200.0 mg/kg/injection, schedule: Q04DX002 (ip), vehicle: Klucel (hydroxypropylcellulose) (HPC) 107 % of control

O=C1Cc2cc3c(cc2C=C2CCCN12)OCO3
inactive: dose: 50.0 mg/kg/injection, schedule: Q01DX001 (ip), vehicle: Klucel (hydroxypropylcellulose) (HPC) 103 % of control | [13] 97 % of control | [14] 101 % of control

ClCCN(CCN(CCCl)c1ccccc1)c1ccccc1
inactive: [15] 113 % of control | [16] 108 % of control | [17] 115 % of control

Oc1ccccc1CNc1ccc(Br)cc1
inactive: [4] 95 % of control | [5] 95 % of control | [6] 93 % of control

CN(C)S(=O)(=O)c1ccc(C=C(c2ccccc2)c2ccccc2)cc1
inactive: [18] 95 % of control | [19] 94 % of control | [20] 91 % of control

CCOC(=O)NC1CCC1NC(=O)OCC (stereo not given)
inactive: [7] 95 % of control | [9] 98 % of control | [11] 91 % of control

CC(C)=CCC/C(C)=C/COC(=O)Cc1ccccc1
inactive: [7] 103 % of control | [8] 97 % of control | [9] 110 % of control | [10] 98 % of control | [11] 103 % of control | [12] 103 % of control

Nc1ccc(CC(=O)O)cc1
inactive: [13] 97 % of control | [14] 101 % of control | dose: 400.0 mg/kg/injection, schedule: Q01DX001 (ip), vehicle: Klucel (hydroxypropylcellulose) (HPC) 88 % of control

CCCCCCCCCCC(CCCCCCCCCC)CC1CCCC1
inactive: dose: 75.0 mg/kg/injection, schedule: Q01DX001 (ip), vehicle: saline with Tween-80 100 % of control | dose: 150.0 mg/kg/injection, schedule: Q01DX001 (ip), vehicle: saline with Tween-80 103 % of control | dose: 300.0 mg/kg/injection, schedule: Q01DX001 (ip), vehicle: saline with Tween-80 97 % of control

Clc1ccc(P(c2ccc(Cl)cc2)c2ccc(Cl)cc2)cc1
inactive: [7] 87 % of control | [8] 98 % of control | [10] 95 % of control | [12] 97 % of control

COc1cc(C(C)=O)cc([N+](=O)[O-])c1O
inactive: [8] 107 % of control | [10] 105 % of control

Cc1ccc([N+](=O)[O-])cc1NC(=O)N(C(C)C)C1CCCCC1
inactive: [15] 106 % of control | [16] 95 % of control | [17] 106 % of control

CCCCCC(=O)NCC(=O)O
inactive: [8] 94 % of control | [10] 97 % of control | [12] 94 % of control

CCOC(=O)C(O)(C#CC(C)C)C1CCCC1 (stereo not given)
inactive: [21] 107 % of control | [22] 105 % of control | [23] 102 % of control

O=C(O)c1cccc(N=Cc2ccc3c(c2)CCC3)c1
inactive: [18] 94 % of control | [19] 94 % of control | [20] 95 % of control

CCN(N=Nc1ccc(C)cc1)N=Nc1ccc(C)cc1
inactive: [15] 93 % of control | [18] 100 % of control | [16] 88 % of control | [19] 100 % of control | [17] 88 % of control | [20] 93 % of control

CCC(C)COC(=O)c1cccc2c1-c1ccccc1C2=O (stereo not given)
inactive: dose: 100.0 mg/kg/injection, schedule: Q01DX001 (ip), vehicle: other 98 % of control | dose: 200.0 mg/kg/injection, schedule: Q01DX001 (ip), vehicle: other 88 % of control | dose: 400.0 mg/kg/injection, schedule: Q01DX001 (ip), vehicle: other 93 % of control

CC1(C)OC(=O)CC1c1ccc(Cl)cc1 (stereo not given)
inactive: [21] 98 % of control | [22] 93 % of control | [23] 106 % of control

O=C(O)C1=CC2C3C=CC(C(=O)O)(C3)C2C1 (stereo not given)
inactive: [7] 96 % of control | [8] 101 % of control | [9] 96 % of control | [10] 102 % of control | [11] 94 % of control | [12] 98 % of control

C(=Nc1ccccc1)c1ccc[nH]1
inactive: [8] 100 % of control | [10] 93 % of control | [12] 96 % of control
